Assay [1] has as its system scopolamine-induced amnesia. Put plainly: passive avoidance paradigm, reversal of scopolamine-induced amnesia (crossover latency). Type of assay: in vivo, rats. How it is done: Male rats weighing between 80 and 100 grams were purchased from Hilltop Lab Animals Inc. (Scottdale, Pa.) and housed in hanging wire mesh cages in groups of three with water and rat chow available ad libitum. The room in which the animals were housed was controlled for both temperature and humidity, there was a standard 12 hour, light/dark cycle. To assess memory, the Gemini Avoidance System (San Diego Instruments) was utilized in a standard passive avoidance paradigm. Briefly, the avoidance apparatus consisted of a box (53×53×32 cm) with two compartments connected by an opening with a sliding door. The room in which the rat was placed was brightly lit, while the other room was dark. Initially, the animals were allowed to explore the apparatus and were then removed. During the memory acquisition trial, animals were placed in the light compartment. When an animal entered the dark compartment, the sliding door closed and a mild foot shock (1mA; 1 sec.) was delivered. The rat was then removed from the apparatus and returned to its cage. Twenty-four hours later the rat was again placed in the light side of the apparatus and the time latency to crossing to the dark room recorded. […] The acquisition of memory for the foot shock was assessed as an increased latency period before entering the dark room on the second day. Significant differences in crossover latency were determined by statistical analysis utilizing one-way analysis of a variance with a Dunnett's test post hoc. Significant differences between groups were interpreted as differences in memory acquisition resulting from the various treatments.
To determine the effect of DHEAS on memory, one hour before the acquisition trial […] of ten animals were injected intraperitoneally (IP) with one of the following several doses of DHEAS (5, 10, 20, 30, 50, 70 mg/Kg/ml dissolved saline) or saline. All animals in a given group were administered the same dosage. […] Twenty-four hours later the rats were again placed in the apparatus and the time delay before the animals entered the dark compartment was recorded.
Twenty-four hours later, crossover latency (the time delay before the rats crossed to the dark compartment) for the groups was determined.
(§1) In order to determine whether EMATE alone could enhance memory, four groups of rats (10 animals per group), were injected with EMATE (10 mg/Kg; IP), either four hours before the acquisition trial, or dally for 3, 10 or 15 days before the acquisition trial. Twenty-four hours following the acquisition trial crossover latency was determined. The dally dosage of EMATE was 10 mg/kg which inhibited the sulfatase enzyme for about three to four days.

The test system of assay [2] is steroid sulfatase. Put plainly: inhibition of steroid sulfatase after dosing. The format is in vivo. The procedure:
as §1
Sulfatase inhibitor EMATE can effect the memory enhancement of peripherally administered DHEAS, a neurosteroid, by inhibiting the metabolism of DHEAS to DHEA. […] A single dose (10 mg/kg) can inhibit greater than 98% of sulfatase after 24 hours. After 10 days of treatment the sulfatase activity in the whole body (including liver, adrenal gland, ovary, uterus and brain) is inhibited. The administration of EMATE alone can alter the equilibrium between the endogenous sulfated and unsulfated forms of neurosteroids in such a way as to enhance memory.

Where a name gives a salt, the structure may show the parent alone.

Take `C[C@]12CC[C@H](OS(=O)(=O)O)CC1=CC[C@@H]1[C@@H]2CC[C@]2(C)C(=O)CC[C@@H]12` [DHEAS, dehydroepiandrosterone sulfate, reference compound]: in assay [1] (DHEAS 20 mg/Kg IP one hour before acquisition trial, scopolamine 1 mg/Kg IP, latency 24 hours later), the “crossover latency (maximum effect)” value was 299.4 ± 83.5 s. In assay [1] (DHEAS 5-70 mg/Kg IP one hour before acquisition trial, scopolamine 1 mg/Kg IP 30 minutes before, bell shaped dose response curve), the “reversal of scopolamine-induced amnesia” value was “significant (p≤0.05), reversal of scopolamine-induced amnesia”.

On to `C[C@]12CC[C@@H]3c4ccc(OS(N)(=O)=O)cc4CC[C@H]3[C@@H]1CCC2=O` [EMATE, estrone - 3-sulfamate], for which the “reversal of scopolamine-induced amnesia” value in assay [1] (EMATE alone 10 mg/Kg IP daily for 10 and 15 days before acquisition trial) is “significant (p≤0.05) reversal of scopolamine-induced amnesia”. The crossover latency was found to be 263.1 ± 69.7 s in assay [1] (EMATE alone 10 mg/Kg IP daily for 10 days before acquisition trial) and 297.0 ± 88.7 s in assay [1] (EMATE alone 10 mg/Kg IP daily for 15 days before acquisition trial). In addition, in assay [1] (EMATE alone, single dose 10 mg/Kg IP four hours before acquisition trial), the “effect on crossover latency” value was “failed to increase crossover latency”. The “sulfatase activity in the whole body (including liver, adrenal gland, ovary, uterus and brain)” value in assay [2] (after 10 days of treatment) is “inhibited”. In addition, in assay [2] (dosage 10 mg/kg), the “duration of inhibition of the sulfatase enzyme” value was “about three to four”. In addition, the “kind of steroid sulfatase inhibition” value in assay [2] (in vivo) is “potent irreversible inhibitor”. For the same compound, the inhibition of sulfatase entry in assay [2] (single dose 10 mg/kg, after 24 hours) is reported as “greater than 98%”.

Source of the values: patent US5556847A, “Methods of effecting memory enhancement mediated by steroid sulfatase inhibitors” (Duquesne University of the Holy Ghost, priority 1994, dated 1996).
